ChEMBL document CHEMBL4507261, “Data for DCP probe A-192621” (2021)

Legend:
[1] = biological target: Dual specificity mitogen-activated protein kinase kinase 3 (Homo sapiens) (UniProt P46734); conditions: Compound concentration 1000.0 nM
[2] = biological target: Serine/threonine-protein kinase mTOR (Homo sapiens) (UniProt P42345); conditions: Compound concentration 1000.0 nM
[3] = biological target: Eukaryotic translation initiation factor 2-alpha kinase 1 (Homo sapiens) (UniProt Q9BQI3); conditions: Compound concentration 1000.0 nM
[4] = biological target: Serine/threonine-protein kinase ULK2 (Homo sapiens) (UniProt Q8IYT8); conditions: Compound concentration 1000.0 nM
Serine/threonine-protein kinase ULK2 (Homo sapiens), sequence (Q8IYT8 whole entry): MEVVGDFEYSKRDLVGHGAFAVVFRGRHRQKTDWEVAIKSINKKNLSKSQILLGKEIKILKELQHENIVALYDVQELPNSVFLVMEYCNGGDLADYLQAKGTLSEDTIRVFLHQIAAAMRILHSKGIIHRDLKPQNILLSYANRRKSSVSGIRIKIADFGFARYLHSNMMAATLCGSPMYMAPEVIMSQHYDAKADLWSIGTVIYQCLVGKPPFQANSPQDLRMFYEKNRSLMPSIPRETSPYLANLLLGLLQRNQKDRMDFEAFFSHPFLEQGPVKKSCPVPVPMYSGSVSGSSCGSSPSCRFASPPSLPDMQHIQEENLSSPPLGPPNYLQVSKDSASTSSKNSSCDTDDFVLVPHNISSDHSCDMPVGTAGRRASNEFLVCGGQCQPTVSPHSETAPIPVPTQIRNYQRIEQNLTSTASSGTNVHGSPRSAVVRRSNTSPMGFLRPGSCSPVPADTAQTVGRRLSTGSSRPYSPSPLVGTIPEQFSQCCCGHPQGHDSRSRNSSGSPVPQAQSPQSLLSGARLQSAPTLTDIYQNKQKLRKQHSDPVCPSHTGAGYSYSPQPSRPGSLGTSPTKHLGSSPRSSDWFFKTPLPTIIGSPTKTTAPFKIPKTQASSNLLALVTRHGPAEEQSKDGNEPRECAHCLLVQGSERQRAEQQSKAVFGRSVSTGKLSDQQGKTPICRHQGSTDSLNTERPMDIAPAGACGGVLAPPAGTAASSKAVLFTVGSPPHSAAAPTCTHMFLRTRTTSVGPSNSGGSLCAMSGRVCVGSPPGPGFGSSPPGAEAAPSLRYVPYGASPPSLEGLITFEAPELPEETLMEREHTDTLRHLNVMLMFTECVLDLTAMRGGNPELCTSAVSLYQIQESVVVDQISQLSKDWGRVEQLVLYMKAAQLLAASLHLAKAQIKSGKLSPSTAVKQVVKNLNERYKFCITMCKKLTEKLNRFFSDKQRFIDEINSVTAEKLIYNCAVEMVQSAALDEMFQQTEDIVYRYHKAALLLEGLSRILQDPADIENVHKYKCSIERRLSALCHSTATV

[5] = biological target: 5-hydroxytryptamine receptor 2A (Homo sapiens) (UniProt P28223); assay: 5-HT2A (h) Eurofins-Cerep binding assay; set-up: ligand concentration 0.5 nM; conditions: filed as antagonist, Compound concentration 10.0 uM
[6] = biological target: Serine/threonine-protein kinase N2 (Homo sapiens) (UniProt Q16513); conditions: Compound concentration 1000.0 nM
Serine/threonine-protein kinase N2 (Homo sapiens), sequence (Q16513 whole entry, looked up): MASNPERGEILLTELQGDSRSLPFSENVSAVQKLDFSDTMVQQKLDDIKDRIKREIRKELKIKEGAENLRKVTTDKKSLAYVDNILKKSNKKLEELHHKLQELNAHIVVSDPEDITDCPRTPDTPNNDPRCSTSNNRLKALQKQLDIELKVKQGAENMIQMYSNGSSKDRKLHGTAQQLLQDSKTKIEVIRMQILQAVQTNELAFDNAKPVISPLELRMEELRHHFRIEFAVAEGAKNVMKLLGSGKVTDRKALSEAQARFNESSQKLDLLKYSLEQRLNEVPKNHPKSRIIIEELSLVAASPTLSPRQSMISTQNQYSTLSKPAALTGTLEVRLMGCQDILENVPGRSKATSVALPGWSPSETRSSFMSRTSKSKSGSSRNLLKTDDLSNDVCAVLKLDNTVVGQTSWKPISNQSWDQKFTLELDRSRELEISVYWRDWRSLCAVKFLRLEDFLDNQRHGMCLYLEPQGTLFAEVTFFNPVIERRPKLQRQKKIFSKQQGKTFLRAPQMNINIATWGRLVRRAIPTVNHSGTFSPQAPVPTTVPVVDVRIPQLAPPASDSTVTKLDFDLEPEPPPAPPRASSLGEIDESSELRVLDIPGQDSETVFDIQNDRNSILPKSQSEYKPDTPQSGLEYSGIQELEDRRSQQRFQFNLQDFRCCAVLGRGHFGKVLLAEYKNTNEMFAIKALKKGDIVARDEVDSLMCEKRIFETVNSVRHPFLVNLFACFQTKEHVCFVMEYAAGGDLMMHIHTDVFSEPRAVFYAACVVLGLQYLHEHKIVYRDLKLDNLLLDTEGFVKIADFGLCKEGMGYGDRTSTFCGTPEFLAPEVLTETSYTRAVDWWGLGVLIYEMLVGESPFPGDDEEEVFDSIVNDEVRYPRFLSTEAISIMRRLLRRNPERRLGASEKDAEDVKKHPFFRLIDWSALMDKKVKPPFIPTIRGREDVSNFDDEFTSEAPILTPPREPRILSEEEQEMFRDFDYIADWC

[7] = biological target: NT-3 growth factor receptor (Homo sapiens) (UniProt Q16288); conditions: Compound concentration 1000.0 nM
[8] = biological target: Epithelial discoidin domain-containing receptor 1 (Homo sapiens) (UniProt Q08345); conditions: Compound concentration 1000.0 nM
[9] = biological target: Mitogen-activated protein kinase 13 (Homo sapiens) (UniProt O15264); conditions: Compound concentration 1000.0 nM
[10] = biological target: Casein kinase I isoform gamma-1 (Homo sapiens) (UniProt Q9HCP0); conditions: Compound concentration 1000.0 nM
[11] = biological target: Cyclin-dependent kinase 4 (Homo sapiens) (UniProt P11802); conditions: Compound concentration 1000.0 nM
[12] = biological target: Tyrosine-protein kinase HCK (Homo sapiens) (UniProt P08631); conditions: Compound concentration 1000.0 nM
[13] = biological target: Serine/threonine-protein kinase/endoribonuclease IRE1 (Homo sapiens) (UniProt O75460); conditions: Compound concentration 1000.0 nM
[14] = biological target: LIM domain kinase 1 (Homo sapiens) (UniProt P53667); conditions: Compound concentration 1000.0 nM
[15] = biological target: Serine/threonine-protein kinase SIK3 (Homo sapiens) (UniProt Q9Y2K2); conditions: Compound concentration 1000.0 nM
[16] = biological target: Cholecystokinin receptor type A (Homo sapiens) (UniProt P32238); assay: CCK1 (CCKA) (h) Eurofins-Cerep binding assay; set-up: ligand concentration 0.08 nM; conditions: filed as agonist, Compound concentration 10.0 uM
[17] = tested on: Hepatocyte growth factor receptor (Homo sapiens), P08581 [Y1235D]; conditions: Compound concentration 1000.0 nM
[18] = biological target: Ribosomal protein S6 kinase beta-1 (Homo sapiens) (UniProt P23443); conditions: Compound concentration 1000.0 nM
Ribosomal protein S6 kinase beta-1 (Homo sapiens), sequence (P23443 whole entry, looked up): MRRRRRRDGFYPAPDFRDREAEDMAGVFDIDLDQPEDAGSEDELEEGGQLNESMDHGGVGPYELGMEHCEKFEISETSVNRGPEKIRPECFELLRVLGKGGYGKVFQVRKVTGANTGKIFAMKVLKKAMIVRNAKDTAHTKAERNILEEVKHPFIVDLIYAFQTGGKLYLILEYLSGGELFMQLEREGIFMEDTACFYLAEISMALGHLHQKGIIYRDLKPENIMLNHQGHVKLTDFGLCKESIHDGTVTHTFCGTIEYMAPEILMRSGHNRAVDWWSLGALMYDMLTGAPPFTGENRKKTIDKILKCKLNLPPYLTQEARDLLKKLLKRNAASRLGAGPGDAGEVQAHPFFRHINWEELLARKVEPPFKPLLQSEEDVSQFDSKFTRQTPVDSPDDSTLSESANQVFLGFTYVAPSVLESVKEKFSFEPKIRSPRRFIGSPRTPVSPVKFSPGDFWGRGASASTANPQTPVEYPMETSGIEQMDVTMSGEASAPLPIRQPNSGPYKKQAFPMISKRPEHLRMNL

[19] = biological target: Mitogen-activated protein kinase 12 (Homo sapiens) (UniProt P53778); conditions: Compound concentration 1000.0 nM
[20] = biological target: Serine/threonine-protein kinase 24 (Homo sapiens) (UniProt Q9Y6E0); conditions: Compound concentration 1000.0 nM
[21] = biological target: Cyclin-dependent kinase 15 (Homo sapiens) (UniProt Q96Q40); conditions: Compound concentration 1000.0 nM
[22] = biological target: Fibroblast growth factor receptor 2 (Homo sapiens) (UniProt P21802); conditions: Compound concentration 1000.0 nM
[23] = biological target: D(2) dopamine receptor (Homo sapiens) (UniProt P14416); assay: D2S (h) Eurofins-Cerep binding assay; set-up: ligand concentration 0.3 nM; conditions: filed as antagonist, Compound concentration 10.0 uM
D(2) dopamine receptor (Homo sapiens), sequence (P14416 whole entry): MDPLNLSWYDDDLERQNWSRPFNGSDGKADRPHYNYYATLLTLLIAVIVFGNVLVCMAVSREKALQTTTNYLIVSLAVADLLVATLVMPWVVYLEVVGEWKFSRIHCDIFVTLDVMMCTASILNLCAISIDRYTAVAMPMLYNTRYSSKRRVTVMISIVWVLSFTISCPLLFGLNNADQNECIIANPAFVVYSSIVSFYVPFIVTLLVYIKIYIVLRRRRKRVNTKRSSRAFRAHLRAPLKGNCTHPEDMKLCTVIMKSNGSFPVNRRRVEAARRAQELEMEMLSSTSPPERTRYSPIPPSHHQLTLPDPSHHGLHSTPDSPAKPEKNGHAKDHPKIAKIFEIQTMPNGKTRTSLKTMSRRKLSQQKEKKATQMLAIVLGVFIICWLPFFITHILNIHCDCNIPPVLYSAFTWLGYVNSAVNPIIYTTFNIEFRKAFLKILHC

[24] = biological target: Ephrin type-A receptor 6 (Homo sapiens) (UniProt Q9UF33); conditions: Compound concentration 1000.0 nM
[25] = biological target: Macrophage colony-stimulating factor 1 receptor (Homo sapiens) (UniProt P07333); conditions: Compound concentration 1000.0 nM
[26] = biological target: Serine/threonine-protein kinase PAK 5 (Homo sapiens) (UniProt Q9P286); conditions: Compound concentration 1000.0 nM
Serine/threonine-protein kinase PAK 5 (Homo sapiens), sequence (Q9P286 whole entry, looked up): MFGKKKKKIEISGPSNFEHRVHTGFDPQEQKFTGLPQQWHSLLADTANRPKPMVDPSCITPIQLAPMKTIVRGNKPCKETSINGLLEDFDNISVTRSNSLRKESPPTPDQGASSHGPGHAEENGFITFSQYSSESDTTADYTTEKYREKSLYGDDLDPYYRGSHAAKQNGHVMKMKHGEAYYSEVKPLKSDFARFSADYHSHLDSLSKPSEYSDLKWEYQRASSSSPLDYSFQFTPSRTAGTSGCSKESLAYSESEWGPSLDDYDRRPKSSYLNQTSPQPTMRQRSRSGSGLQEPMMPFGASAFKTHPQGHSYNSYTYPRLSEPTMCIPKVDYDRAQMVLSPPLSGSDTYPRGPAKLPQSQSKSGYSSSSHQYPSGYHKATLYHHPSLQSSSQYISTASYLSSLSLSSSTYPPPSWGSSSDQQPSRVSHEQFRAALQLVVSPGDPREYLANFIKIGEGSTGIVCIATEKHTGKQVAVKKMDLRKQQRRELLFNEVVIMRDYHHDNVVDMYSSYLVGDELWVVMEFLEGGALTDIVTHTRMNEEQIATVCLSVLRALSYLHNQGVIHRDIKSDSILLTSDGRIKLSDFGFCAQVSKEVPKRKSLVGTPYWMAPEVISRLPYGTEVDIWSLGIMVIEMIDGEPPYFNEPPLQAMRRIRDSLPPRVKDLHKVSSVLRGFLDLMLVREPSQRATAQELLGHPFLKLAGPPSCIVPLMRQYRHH

[27] = biological target: T1, 5-hydroxytryptamine receptor 3A (Homo sapiens) (UniProt P46098); assay: 5-HT3 (h) Eurofins-Cerep binding assay; set-up: ligand concentration 0.5 nM; conditions: filed as antagonist, Compound concentration 10.0 uM
T1 sequence (whole entry): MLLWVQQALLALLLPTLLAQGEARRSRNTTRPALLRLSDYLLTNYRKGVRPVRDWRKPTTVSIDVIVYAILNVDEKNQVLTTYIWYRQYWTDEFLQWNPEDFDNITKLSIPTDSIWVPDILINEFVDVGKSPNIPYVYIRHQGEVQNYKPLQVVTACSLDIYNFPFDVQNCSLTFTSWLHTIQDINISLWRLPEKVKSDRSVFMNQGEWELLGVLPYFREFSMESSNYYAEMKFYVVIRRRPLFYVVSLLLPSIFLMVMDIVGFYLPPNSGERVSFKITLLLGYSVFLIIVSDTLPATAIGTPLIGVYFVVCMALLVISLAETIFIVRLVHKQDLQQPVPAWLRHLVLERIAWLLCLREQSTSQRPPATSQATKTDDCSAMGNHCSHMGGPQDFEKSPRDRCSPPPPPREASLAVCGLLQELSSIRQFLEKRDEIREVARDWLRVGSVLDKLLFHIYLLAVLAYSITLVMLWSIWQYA

[28] = biological target: B2 bradykinin receptor (Homo sapiens) (UniProt P30411); assay: B2 (h) Eurofins-Cerep binding assay; set-up: ligand concentration 0.3 nM; conditions: filed as agonist, Compound concentration 10.0 uM
[29] = biological target: Hormonally up-regulated neu tumor-associated kinase (Homo sapiens) (UniProt P57058); conditions: Compound concentration 1000.0 nM
[30] = biological target: NUAK family SNF1-like kinase 2 (Homo sapiens) (UniProt Q9H093); conditions: Compound concentration 1000.0 nM
NUAK family SNF1-like kinase 2 (Homo sapiens), sequence (Q9H093 whole entry): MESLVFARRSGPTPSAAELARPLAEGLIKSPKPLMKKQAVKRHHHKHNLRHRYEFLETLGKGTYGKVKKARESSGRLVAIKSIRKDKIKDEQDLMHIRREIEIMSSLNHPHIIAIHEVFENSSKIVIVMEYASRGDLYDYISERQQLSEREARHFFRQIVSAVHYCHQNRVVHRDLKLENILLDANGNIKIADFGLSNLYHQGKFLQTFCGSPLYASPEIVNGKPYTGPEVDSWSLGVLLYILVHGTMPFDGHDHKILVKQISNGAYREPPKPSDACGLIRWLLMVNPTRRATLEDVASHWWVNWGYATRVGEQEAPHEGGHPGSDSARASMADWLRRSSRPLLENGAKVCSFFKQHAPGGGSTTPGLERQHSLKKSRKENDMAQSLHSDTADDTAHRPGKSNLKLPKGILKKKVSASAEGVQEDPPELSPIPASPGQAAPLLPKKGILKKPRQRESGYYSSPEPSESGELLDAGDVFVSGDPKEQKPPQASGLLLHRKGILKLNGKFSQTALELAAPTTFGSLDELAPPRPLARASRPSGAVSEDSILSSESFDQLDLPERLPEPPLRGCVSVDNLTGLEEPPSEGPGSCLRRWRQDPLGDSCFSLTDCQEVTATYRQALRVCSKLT

[31] = biological target: Cannabinoid receptor 1 (Homo sapiens) (UniProt P21554); assay: CB1 (h) Eurofins-Cerep binding assay; set-up: ligand concentration 0.5 nM; conditions: filed as agonist, Compound concentration 10.0 uM
[32] = biological target: Estrogen receptor (Homo sapiens) (UniProt P03372); assay: Estrogen ER alpha (h) Eurofins-Cerep binding assay; set-up: ligand concentration 0.5 nM; conditions: filed as agonist, Compound concentration 10.0 uM
Estrogen receptor (Homo sapiens), sequence (P03372 whole entry, canonical isoform): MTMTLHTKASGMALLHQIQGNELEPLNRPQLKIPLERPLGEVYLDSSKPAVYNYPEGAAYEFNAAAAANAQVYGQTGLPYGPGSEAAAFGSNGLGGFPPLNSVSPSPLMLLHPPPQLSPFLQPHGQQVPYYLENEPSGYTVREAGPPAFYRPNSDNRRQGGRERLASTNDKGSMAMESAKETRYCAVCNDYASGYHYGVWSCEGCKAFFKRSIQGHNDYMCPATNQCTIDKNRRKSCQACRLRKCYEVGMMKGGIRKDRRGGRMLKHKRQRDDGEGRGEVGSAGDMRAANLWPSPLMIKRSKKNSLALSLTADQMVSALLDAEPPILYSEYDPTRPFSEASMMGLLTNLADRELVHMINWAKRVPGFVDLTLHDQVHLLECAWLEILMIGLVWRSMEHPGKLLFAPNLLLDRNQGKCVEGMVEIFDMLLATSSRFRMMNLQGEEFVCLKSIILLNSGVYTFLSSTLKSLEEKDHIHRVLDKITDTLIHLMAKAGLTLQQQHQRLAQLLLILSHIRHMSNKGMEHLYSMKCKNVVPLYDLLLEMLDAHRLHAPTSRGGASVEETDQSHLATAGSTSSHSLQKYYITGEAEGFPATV

[33] = biological target: Phosphorylase b kinase regulatory subunit alpha, liver isoform (Homo sapiens) (UniProt P46019); conditions: Compound concentration 1000.0 nM
[34] = tested on: Hepatocyte growth factor receptor (Homo sapiens), P08581 [M1250T]; conditions: Compound concentration 1000.0 nM
[35] = biological target: Mitogen-activated protein kinase kinase kinase kinase 1 (Homo sapiens) (UniProt Q92918); conditions: Compound concentration 1000.0 nM
[36] = biological target: Phosphatidylinositol 4-kinase beta (Homo sapiens) (UniProt Q9UBF8); conditions: Compound concentration 1000.0 nM
[37] = biological target: Ephrin type-B receptor 6 (Homo sapiens) (UniProt O15197); conditions: Compound concentration 1000.0 nM
[38] = tested on: Epidermal growth factor receptor (Homo sapiens), P00533 [UNDEFINED MUTATION]; conditions: Compound concentration 1000.0 nM
[39] = tested on: Proto-oncogene tyrosine-protein kinase receptor Ret (Homo sapiens), P07949 [V804L]; conditions: Compound concentration 1000.0 nM

CCCOc1ccc([C@H]2[C@H](C(=O)O)[C@@H](c3ccc4c(c3)OCO4)CN2CC(=O)Nc2c(CC)cccc2CC)cc1 [A-192621]
residual activity [1]: 60%
residual activity [2]: 77%
residual activity [3]: 84%
residual activity [4]: 55%
% Inhibition of Control Specific Binding (Mean n=2) [5]: 5.5%
residual activity [6]: 100%
residual activity [7]: 71%
residual activity [8]: 100%
residual activity [9]: 92%
residual activity [10]: 100%
residual activity [11]: 100%
residual activity [12]: 92%
residual activity [13]: 86%
residual activity [14]: 100%
residual activity [15]: 71%
% Inhibition of Control Specific Binding (Mean n=2) [16]: 63.1%
residual activity [17]: 100%
residual activity [18]: 76%
residual activity [19]: 73%
residual activity [20]: 84%
residual activity [21]: 94%
residual activity [22]: 100%
% Inhibition of Control Specific Binding (Mean n=2) [23]: 2.6%
residual activity [24]: 100%
residual activity [25]: 90%
residual activity [26]: 73%
% Inhibition of Control Specific Binding (Mean n=2) [27]: -10.7%
% Inhibition of Control Specific Binding (Mean n=2) [28]: -8.6%
residual activity [29]: 100%
residual activity [30]: 57%
% Inhibition of Control Specific Binding (Mean n=2) [31]: 15.4%
% Inhibition of Control Specific Binding (Mean n=2) [32]: -1.1%
residual activity [33]: 86%
residual activity [34]: 71%
residual activity [35]: 92%
residual activity [36]: 75%
residual activity [37]: 65%
residual activity [38]: 100%
residual activity [39]: 93%

CCCOc1ccc([C@@H]2[C@@H](C(=O)O)[C@H](c3ccc4c(c3)OCO4)CN2CC(=O)Nc2c(CC)cccc2CC)cc1 [A-1806262]
residual activity [1]: 82%
residual activity [2]: 100%
residual activity [3]: 86%
residual activity [4]: 76%
% Inhibition of Control Specific Binding (Mean n=2) [5]: -2.9%
residual activity [6]: 100%
residual activity [7]: 91%
residual activity [8]: 89%
residual activity [9]: 100%
residual activity [10]: 97%
residual activity [11]: 84%
residual activity [12]: 92%
residual activity [13]: 90%
residual activity [14]: 90%
residual activity [15]: 89%
% Inhibition of Control Specific Binding (Mean n=2) [16]: 75.9%
residual activity [17]: 99%
residual activity [18]: 79%
residual activity [19]: 100%
residual activity [20]: 74%
residual activity [21]: 93%
residual activity [22]: 100%
% Inhibition of Control Specific Binding (Mean n=2) [23]: 1.8%
residual activity [24]: 98%
residual activity [25]: 100%
residual activity [26]: 88%
% Inhibition of Control Specific Binding (Mean n=2) [27]: -7.1%
% Inhibition of Control Specific Binding (Mean n=2) [28]: -12.3%
residual activity [29]: 70%
residual activity [30]: 73%
% Inhibition of Control Specific Binding (Mean n=2) [31]: -1.6%
% Inhibition of Control Specific Binding (Mean n=2) [32]: -0.8%
residual activity [33]: 74%
residual activity [34]: 81%
residual activity [35]: 92%
residual activity [36]: 100%
residual activity [37]: 77%
residual activity [38]: 100%
residual activity [39]: 97%
